Structures are written as SMILES.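 A five-concentration, 48-hour dose response in 96-well plates underlies each endpoint, interpolated linearly between surrounding concentrations. GI50 is the concentration that inhibits growth by half. TGI denotes the concentration required for complete inhibition of growth.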

Test systems include IGROV1 ovarian; HCT-116 colon; M14 melanoma; OVCAR-4 ovarian; SF-295 CNS; CAKI-1 renal; HS 578T breast; HCC-2998 colon; MCF7 breast; A498 renal; PC-3 prostate.
Common to all, as to test: NCI-60 cell line screen, 48 h

As to `O=C1C(Cl)N(c2ccccc2Cl)C1c1c[nH]c2ccccc12` (stereo not given), the TGI with IGROV1 ovarian, in the experiment on HCT-116 colon, in the experiment on M14 melanoma, with OVCAR-4 ovarian and with SF-295 CNS was more than 100 µM each time.
In the case of `Oc1ccc(C(=C(Br)c2ccccc2)c2ccc(O)cc2)cc1`, the TGI worked out at 30.8 µM in the experiment with CAKI-1 renal; 19.9 µM with IGROV1 ovarian; 22 µM in the experiment on HS 578T breast; 15.9 µM in the experiment with HCT-116 colon; 21.2 µM with HCC-2998 colon; 15.3 µM with M14 melanoma. In addition, the TGI in the experiment on MCF7 breast turned out to be 12.4 µM; with SF-295 CNS, 25.6 µM; in the experiment with A498 renal it was 34.2 µM; in the experiment on PC-3 prostate, 19.9 µM.
In the case of `C=C(C#N)C(=O)OCC(CC)CC.C=C(C#N)C(=O)OCC(CC)CC.CS(C)=O.CS(C)=O.Nc1c(N=Nc2ccc(-c3ccc(N=Nc4cc(S(=O)(=O)[O-])c5ccccc5c4N)cc3)cc2)cc(S(=O)(=O)[O-])c2ccccc12.[Pt+2]`, the GI50 with CAKI-1 renal is 20.4 µM; in the experiment with IGROV1 ovarian it was 29.4 µM; in the experiment with HCT-116 colon it was more than 65.2 µM; in the experiment with HCC-2998 colon, 48.9 µM; with MCF7 breast, 24.2 µM; with OVCAR-4 ovarian it was 33.7 µM. Besides, the GI50 was 98.4 µM with SF-295 CNS and more than 71.4 µM in the experiment on A498 renal. Further, the TGI was 53.7 µM in the experiment with CAKI-1 renal; more than 100 µM in the experiment with IGROV1 ovarian; more than 100 µM in the experiment on HCT-116 colon; more than 100 µM in the experiment with HCC-2998 colon; more than 100 µM in the experiment on MCF7 breast; 99.2 µM in the experiment with OVCAR-4 ovarian. In addition, the TGI in the experiment with SF-295 CNS and in the experiment on A498 renal was more than 100 µM in each case.
`COc1ccc2nc3cc(Cl)ccc3c(NC(C)CCCN(CCCl)CCCl)c2c1` (stereo not given): the TGI amounted to 13.9 µM in the experiment on CAKI-1 renal; 7.11 µM in the experiment with IGROV1 ovarian; 1.5 µM with HCT-116 colon; 9.61 µM with HCC-2998 colon; 2.78 µM with M14 melanoma; 4.33 µM in the experiment with OVCAR-4 ovarian. The TGI in the experiment with SF-295 CNS came out at 10.6 µM; with A498 renal, 18.7 µM.
Take `Cc1ccc(S(=O)(=O)N(CC(O)COc2ccccc2)c2c(F)cccc2F)cc1` (stereo not given): the TGI with CAKI-1 renal came out at 33.8 µM; in the experiment with HS 578T breast, 46.1 µM; in the experiment with HCC-2998 colon, 47.6 µM; with M14 melanoma, 32 µM; in the experiment on MCF7 breast, 30.7 µM; in the experiment on OVCAR-4 ovarian, 31.7 µM. Further, the TGI with SF-295 CNS was 86 µM; with A498 renal, 38.8 µM; with PC-3 prostate, 36.9 µM.
For `COC(=O)c1cc2c(cc1Cl)Sc1nnc(Nc3ccccc3)n1S2(=O)=O`, the TGI in the experiment on CAKI-1 renal is 7.23 µM; with IGROV1 ovarian it was 2.68 µM; in the experiment on HS 578T breast it was 11.4 µM; in the experiment on HCT-116 colon it was 14.7 µM; in the experiment with HCC-2998 colon, 4.59 µM; with M14 melanoma it was 17.5 µM. In addition, the TGI was determined as 8.94 µM with MCF7 breast; 8.97 µM with OVCAR-4 ovarian; 12.7 µM with SF-295 CNS; 12.9 µM in the experiment on A498 renal; 10 µM in the experiment on PC-3 prostate.
On to `O=C1c2cc(O)c(O)cc2O[C@H](c2ccc(O)c(O)c2)[C@H]1O`, for which the TGI with CAKI-1 renal, in the experiment on IGROV1 ovarian, in the experiment with HS 578T breast, with HCT-116 colon, in the experiment on HCC-2998 colon and in the experiment on M14 melanoma was more than 100 µM each time. The TGI in the experiment with MCF7 breast, with SF-295 CNS, in the experiment with A498 renal and with PC-3 prostate was more than 100 µM each time.
For `O=C1c2cc3c(cc2-c2c1c1ccc(Cl)cc1c(=O)n2C[C@H](O)CO)OCO3`, the GI50 is less than 0.01 µM with CAKI-1 renal; 0.135 µM in the experiment with IGROV1 ovarian; 0.122 µM with HCC-2998 colon; 0.025 µM in the experiment on M14 melanoma; less than 0.01 µM in the experiment with MCF7 breast; less than 0.01 µM with SF-295 CNS. Further, the GI50 in the experiment on A498 renal was 0.0387 µM. Further, the TGI was 0.192 µM with CAKI-1 renal; more than 100 µM in the experiment on IGROV1 ovarian; 0.701 µM in the experiment on HCC-2998 colon; 0.244 µM with M14 melanoma; 0.759 µM in the experiment on MCF7 breast; 0.341 µM in the experiment with SF-295 CNS. Also, the TGI in the experiment with A498 renal stood at 0.16 µM.
`O=C1c2ccccc2C(=O)c2[nH]cnc21`: the TGI in the experiment on CAKI-1 renal, in the experiment on HCT-116 colon, in the experiment with HCC-2998 colon, with M14 melanoma, in the experiment with OVCAR-4 ovarian and in the experiment on SF-295 CNS was more than 100 µM each time. Further, in the experiment on A498 renal, the TGI is more than 100 µM.
On to `Cc1ccc(S(=O)(=O)OC2CC(C(C)(C)C)CCC2c2ccccc2)cc1` (stereo not given), for which the TGI in the experiment with CAKI-1 renal, with IGROV1 ovarian, in the experiment with HCT-116 colon, with M14 melanoma, with MCF7 breast and in the experiment with OVCAR-4 ovarian was more than 100 µM each time. Besides, the TGI in the experiment with SF-295 CNS, in the experiment on A498 renal and with PC-3 prostate was more than 100 µM each time.
On to `CCOC(=O)c1c2c(n(-c3ccc(C)cc3)c1C)-c1ccccc1C(=O)C2(C(=O)OCC)C(=O)OCC`, for which the TGI in the experiment with CAKI-1 renal was more than 100 µM; in the experiment on IGROV1 ovarian, more than 87.7 µM; in the experiment with HS 578T breast it was 86.5 µM; in the experiment on HCT-116 colon, more than 72.9 µM; in the experiment on HCC-2998 colon, 69.9 µM; in the experiment on M14 melanoma it was more than 100 µM. The TGI with MCF7 breast is 76.6 µM; with OVCAR-4 ovarian, more than 100 µM; with SF-295 CNS, more than 100 µM; with A498 renal, 97.3 µM; with PC-3 prostate, more than 100 µM.
As for `CN1C(=O)CC(=O)N1/C(=C/c1ccccc1)c1ccccc1`, the TGI with CAKI-1 renal is 62.5 µM; in the experiment with IGROV1 ovarian, 42.2 µM; in the experiment with HS 578T breast, 88.1 µM; with HCT-116 colon it was more than 100 µM; in the experiment on HCC-2998 colon it was more than 100 µM; in the experiment on M14 melanoma, more than 100 µM. The TGI in the experiment on MCF7 breast, in the experiment with OVCAR-4 ovarian, in the experiment on SF-295 CNS and in the experiment on PC-3 prostate was more than 100 µM in each case.
In the case of `CCN(CC)CCNc1ccc2ncn3c4ccc(O)cc4c(=O)c1c23`, the TGI in the experiment with CAKI-1 renal came to 2.08 µM; in the experiment on IGROV1 ovarian, 14.3 µM; in the experiment with HS 578T breast, 21 µM; in the experiment with HCT-116 colon, 13 µM; with HCC-2998 colon, 18.1 µM; in the experiment with M14 melanoma it was 9.05 µM. The TGI in the experiment with MCF7 breast stood at 12.6 µM; in the experiment on OVCAR-4 ovarian it was 9.81 µM; in the experiment with SF-295 CNS, 15.1 µM; in the experiment with A498 renal, 13.7 µM; in the experiment with PC-3 prostate, 14.5 µM.
With `C=CCNC(=O)C(C)C1CCC2(C)C=CC(=O)C(C)=C2C1O` (stereo not given), the TGI in the experiment with CAKI-1 renal, in the experiment on IGROV1 ovarian, with HCT-116 colon, in the experiment on HCC-2998 colon, in the experiment with MCF7 breast and in the experiment on OVCAR-4 ovarian was more than 100 µM each time. Moreover, the TGI in the experiment on SF-295 CNS and in the experiment with A498 renal was more than 100 µM each time.
Consider `CSCCC(C(=O)O)N(C)C` (stereo not given), for which the TGI in the experiment on CAKI-1 renal, in the experiment on IGROV1 ovarian, with HS 578T breast, with HCT-116 colon, with M14 melanoma and in the experiment with MCF7 breast was more than 100 µM throughout. In addition, the TGI with OVCAR-4 ovarian, in the experiment on SF-295 CNS, in the experiment with A498 renal and with PC-3 prostate was more than 100 µM throughout.
Turning to `O=C(CSCC(=O)N/N=C/c1cccc(O)c1)N/N=C/c1cccc(O)c1`, the TGI in the experiment with CAKI-1 renal, with IGROV1 ovarian, in the experiment with HS 578T breast, in the experiment on HCT-116 colon, with HCC-2998 colon and with M14 melanoma was more than 100 µM in each case. In addition, the TGI with MCF7 breast, with OVCAR-4 ovarian, in the experiment on SF-295 CNS, in the experiment with A498 renal and in the experiment with PC-3 prostate was more than 100 µM in each case.

The values above are taken from PubChem BioAssay (NCI).
